Values after ≈ are worked out from the molar mass of the structure shown. Where two headings read alike, the source gives them in different places.
Legend:
[1] = in vivo, 140 mg/kg
Experimental: Formulations for toxicological evaluation of SJB-01 were considered. The highest solubility was obtained with 100% PEG 400 and a mixture of Gelucire and PEG 400. Since a formulation with Gelucire:PEG required increased handling time, including dosing at ˜45° C., 100% PEG 400 was chosen for formulation purpose in the early toxicological evaluation including mini-MTD (maximum tolerated dose) and a 14 days toxicological dosing study. The maximum dose reached was 140 mg/kg-the highest possible dose achievable with PEG 400 as vehicle. […] From a formulation perspective, this can only be done by using Gelucire:PEG as a vehicle, under the assumption that a solution will lead to a higher bioavailability than dosing the compound in a PEG 400 suspension. In the table below, the maximum dose of SJB-01 given on a solubilized form is provided, taking into account the tolerated dose of the vehicle as well.

[2] = Maximal absorbable dose (MAD) calculation; design: species or system humans
Experimental: The maximal absorbable dose (MAD) of SJB-01, as described by Curatolo (1998), can be calculated according to the following equation: […]
Using this equation, the maximal absorbable dose is 16 mg for SJB-01.

[3] = Solubility in buffered solutions vs pH at 37 °C (HPLC); assay type: physicochemical; conditions: thermodynamic from solid, read-out: Solubility at 24 h
Experimental: Aqueous buffers between pH 1.3 and 7.4 (13 total) were prepared and 3 mL added to about 15 mg of SJB-01 (L100149-44-1, jet-milled). These slurries were stirred on a hot-plate at 37° C. for 24 hours. Sonication and vortexting was employed within the first 2 hours of stirring to ensure thorough mixing and wetting of the solids as there was a clear tendency for them to clump and float at the liquid surface. After sonication and vortexing there was substantial solids suspended in solution (slurry) along with the solids that floated on top. At 24 hours, the samples were collected by syringe filtration of about 2 mL of solution. The first 1 mL of solution that passed through the filter was discarded and the second 0.5-1 mL of solution was used for HPLC analysis. The samples were injected into HPLC without dilution.
SJB-01 (L100149-44-1) was weighed directly into volumetric flasks and filled to volume with ACN:water (6:4 vol.) to build a calibration curve. […] Details for the HPLC method used are given in Table 34; these follow the parameters used for previous dissolution study.

[4] = Intrinsic Dissolution Rate (IDR); assay type: physicochemical; conditions: FeSSIF media, presence of bile components
Experimental: The Intrinsic Dissolution Rate (IDR) was calculated for a beta polymorph form of SJB-01. A tablet of the compound was pressed and put into a dissolution chamber. It was subsequently measured how fast the substance was dissolved from the surface into the solvent. Initially, the experiment was performed in a standard buffer (0.001 M HCl pH 3.0), reflecting the stomach conditions at fastened state.
Due to the high impact of bile components on solubilisation of SJB-01, IDR was performed in FeSSIF media, reflecting the fed-state in humans.

[5] = pKa measured by titration (Example 3); assay type: physicochemical; conditions: measurable detection limit of 2
Experimental: The pKa value was measured by titration.

[6] = Absorption of solid compound dosed orally in rats; assay type: in vivo, Sprague Dawley rats; conditions: for bioavailability: Sprague Dawley, rat, in vivo, oral microsuspension, read-out: Absolute bioavailability
Experimental: The possibility of dosing SJB-01 orally as a solid was explored in rats, as a means to evaluate the developability of the compound. Clinical relevant doses (1, 5 and 10 mg/kg) were administered to rats as microsuspensions. Furthermore, to explore the role of particle size, a suspension (5 mg/kg) was administered as well for comparison.

[7] = Chemical stability (oxygen, pH, light, PEG 400); assay type: physicochemical
[8] = Log P/D determination, pH-metric titration with 1-octanol; assay type: physicochemical
Experimental: Log P and log D were determined for SJB-01 free base using 1-octanol as the partition solvent (Table 2). Log P was experimentally determined to be 4.73 which is larger than the predicted value for the structure, the corresponding Bjerrum plot is shown in FIG. 6. A log D profile (FIG. 5) was constructed for SJB-01 based on the distribution of the API at a particular pH.
(§1) pKa and log P/D data were collected using Pion PULSE Attain software. The Pion PULSE solutions consisted of using ionic strength adjusted water (0.15 M KCl), 0.5 M HCl and […] which were used for all titrations. Purge gas (argon) was used for HEPES (probe validation), KHP (KOH concentration determination), aqueous potentiometric and log P/D potentiometric titrations.
(§2) The Pion PULSE was equipped with an overhead variable speed stirrer, double junction Ag/AgCl pH probe, UV probe with a 1 cm pathlength, Carl-Zeiss spectrophotometer with 256-bit photodiode array, and a temperature probe. The pH of the instrument can range from 1.8-12.2. The compatible co-solvents are MeOH, EtOH, ACN, DMSO and 1,4-dioxane. pKa measurements were completed by either potentiometric or UV-metric methods. log P/D was measured using water saturated 1-octanol as the partitioning solvent. Data was refined using the Pion PULSE refine software.

[9] = pKa determination, co-solvent potentiometric titration (Yasuda-Shedlovsky extrapolation); assay type: physicochemical; conditions: 25.4 °C, MeOH co-solvent potentiometric, extrapolated to 0% co-solvent
Experimental: pKa determination and assignment was completed on SJB-01 (FIG. 1). About 2 mg of SJB-01 (100142-1-1) was titrated three times with varying concentrations of MeOH as co-solvent to generate a Yasuda-Shedlovsky plot (L100142-65-4, FIG. 2 and Table 1). Extrapolation of the Yasuda-Shedlovsky plot to 0% co-solvent determined the pKa's (FIG. 3), which are acidic 5.76, basic 3.03. Acidic pKa is in red and basic pKa is in blue.
as §1, §2

Structure (SMILES): CCNn1c(C)c(C(=O)N[C@H](c2ccccc2)C2CC2)c2cccc(F)c2c1=O [SJB-01, 2-Ethylamino-8-fluoro-3-methyl-1-oxo-1,2-dihydro-isoquinoline-4-carboxylic acid ((S)-cyclopropyl-phenyl-methyl)-amide]
- Clinical observations at maximum dose reached [1]: no clinical observations
- Maximal absorbable dose (MAD) ([2]; MAD=S*Ka*SIWV*SITT, S solubility at pH 6.5): 16 mg
- Maximal absorbable dose (MAD) ([2]; humans, solubility in 0.001M HCl pH 3.0, data from the β-form): 16 mg
- Maximal absorbable dose (MAD) ([2]; humans, solubility in FaSSIF, data from the β-form): 22 mg
- Maximal absorbable dose (MAD) ([2]; humans, solubility in FeSSIF (fed state), data from the β-form): 38 mg
- solubility at 24 h ([3]; Britton-Robinson 0.05M buffer, aqueous buffer, Britton-Robinson 0.05M, initial pH 2.21, 24 h pH 2.22, 37 °C): 7.9 µg/mL (≈ 20.1 µM)
- solubility at 24 h ([3]; Britton-Robinson 0.05M buffer, aqueous buffer, Britton-Robinson 0.05M, initial pH 2.85, 24 h pH 2.97, 37 °C): 7.4 µg/mL (≈ 18.8 µM)
- solubility at 24 h ([3]; Britton-Robinson 0.05M buffer, aqueous buffer, Britton-Robinson 0.05M, initial pH 4.95, 24 h pH 5.01, 37 °C): 7.7 µg/mL (≈ 19.6 µM)
- solubility at 24 h ([3]; Citric acid/NaOH 0.05M buffer, aqueous buffer, Citric acid/NaOH 0.05M, initial pH 2.86, 24 h pH 2.88, 37 °C): 8.1 µg/mL (≈ 20.6 µM)
- solubility at 24 h ([3]; Citric acid/NaOH 0.05M buffer, aqueous buffer, Citric acid/NaOH 0.05M, initial pH 3.82, 24 h pH 3.85, 37 °C): 7.5 µg/mL (≈ 19.1 µM)
- solubility at 24 h ([3]; Citric acid/NaOH 0.05M buffer, pH 4.9, aqueous buffer, Citric acid/NaOH 0.05M, initial pH 4.90, 24 h pH 4.90, 37 °C): 7.2 µg/mL (≈ 18.3 µM)
- solubility at 24 h ([3]; HCl/KCl 0.05M buffer, aqueous buffer, HCl/KCl 0.05M, initial pH 2.13, 24 h pH 2.16, 37 °C): 7.5 µg/mL (≈ 19.1 µM)
- solubility at 24 h ([3]; HCl/KCl 0.05M buffer, pH 1.3, simulated gastric fluid, HCl/KCl 0.05M, initial pH 1.34, 24 h pH 1.30, 37 °C, jet-milled beta form): 7.8 µg/mL (≈ 19.8 µM)
- solubility at 24 h ([3]; KH2PO4/NaOH 0.05M buffer, aqueous buffer, KH2PO4/NaOH 0.05M, initial pH 5.98, 24 h pH 6.04, 37 °C): 7.1 µg/mL (≈ 18 µM)
- solubility at 24 h ([3]; KH2PO4/NaOH 0.05M buffer, aqueous buffer, KH2PO4/NaOH 0.05M, initial pH 7.46, 24 h pH 7.47, 37 °C): 6.4 µg/mL (≈ 16.3 µM)
- solubility at 24 h ([3]; KHP/HCl 0.05M buffer, aqueous buffer, KHP/HCl 0.05M, initial pH 3.18, 24 h pH 3.14, 37 °C): 9.5 µg/mL (≈ 24.1 µM)
- solubility at 24 h ([3]; KHP/HCl 0.05M buffer, aqueous buffer, KHP/HCl 0.05M, initial pH 3.89, 24 h pH 3.94, 37 °C): 9.8 µg/mL (≈ 24.9 µM)
- solubility at 24 h ([3]; KHP/NaOH 0.05M buffer, aqueous buffer, KHP/NaOH 0.05M, initial pH 4.96, 24 h pH 4.99, 37 °C): 8.3 µg/mL (≈ 21.1 µM)
- IDR in FeSSIF media versus standard buffer [4]: not further increased
- pKa [5]: < 2
- bioavailability ([6]; 10 mg/kg): ~30%
- bioavailability ([6]; 1 and 5 mg/kg): ~20%
- Bioavailability, comparison of particle size ([6]; oral, 5 mg/kg, particle size 10 and 50 μm): no differences in bioavailability
- Time stable in PEG 400 ([7]; PEG 400, room temperature, covered from light): at least 4 months
- Compound decomposed ([7]; aqueous solution, extreme light exposure, 24 hr): 100%
- Stability to oxygen and pH ([7]; exposed to oxygen and pH 2, 4, 6, and 7.4): stable
- Compound left ([7]; solid compound, extreme light exposure, 24 hr): ~86%
- logD ([8]; 1-octanol/water, pH 7.4, pH 7.40, 1-octanol, from log D profile, read-out: log D7.40): 3.04
- logP ([8]; neutral species, 1-octanol:water, 25.3 °C, pH-metric, three titrations): 4.73 ± 0.14
- pKa (acidic) ([9]; acidic): 5.76
- pKa ([9]; acidic, read-out: pKa (acidic)): 5.83 ± 0.11
- pKa ([9]; basic, read-out: pKa (basic)): 3.03 ± 0.11

Source: patent publication US20210371385A1, “POLYMORPHIC AND AMORPHOUS FORMS OF ISOQUINOLINONE AND METHODS OF USE THEREOF” (Sojournix, Inc., priority 2018, published 2021)
